Test results as given in patent US7968532B2 (Besins Healthcare Luxembourg, priority 2003, dated 2011).
Like-named read-outs stand apart in the source and are kept apart here.

Legend:
[1] = Follow-up study: percutaneous Z-[^3H]-4-hydroxy tamoxifen or Z-[^3H]-tamoxifen on the breast before surgery; tissue, plasma, urine radioactivity; conditions: for Share of radioactivity in blood: 24 hours after percutaneous 4-hydroxy tamoxifen
Experimental: (§1) The patients received [^3H]-labeled drug applied directly on the affected breasts at specified intervals ranging from 12 hours to 7 days before surgery to excise diseased tissue. Breast tissue from three regions: the tumor, tissue immediately surrounding the tumor, and normal tissue, was excised and immediately frozen in liquid nitrogen. Additionally, plasma and urine samples were obtained at scheduled intervals and frozen until analysis.

[2] = in vivo
Experimental: as §1

[3] = system: rat liver; conditions: cited from earlier work
[4] = Pharmacokinetics of 4-hydroxy tamoxifen gel in healthy premenopausal women; format: in vivo, human
[5] = human, in vivo; cited from earlier work
[6] = topical application
[7] = one person in Group 2 (0.5 mg/day gel, seventh day); one person in Group 1 (oral tamoxifen, fifth day); cited from earlier work

In the case of CC/C(=C(/c1ccc(O)cc1)c1ccc(OCCN(C)C)cc1)c1ccccc1 (single isomer, unassigned) [E isomer], the “Percentage of radioactivity in breast tissue as Z and E isomer” value ([1]; day 7 after percutaneous administration) is reported as 33%.

For CCC(=C(c1ccc(O)cc1)c1ccc(OCCN(C)C)cc1)c1ccccc1 [4-hydroxy tamoxifen, 1-[4-(2-N-dimethylaminoethoxy)phenyl]-1-(4-hydroxyphenyl)-2-phenylbut-1-ene], the “Metabolism in cytosolic and nuclear fractions of breast tissue” value [2] was “remained unmetabolized except for limited isomerization from the Z to the E form”, the “Share of radioactivity in blood” value [2] was 68% and the “Subcellular distribution in breast tissue” value [2] was “concentrated predominantly in the cytosolic and nuclear fractions of breast tissue”. The “Time of plateau of radioactivity in blood” value [2] was 4 to 6 days, the Rat liver carcinogen ([3]; in vivo) was “not” and the “Plasma concentration of 4-hydroxy tamoxifen, Mean ± SD (Range)” value (“Plasma concentration … Mean ± SD (Range)” below) ([4]; 0.5 mg/day, gel 20 mg/100 g, n=12, First cycle Day 1, 0 hr) was “(0-17.2) pg/mL”. For the same molecule, the “Plasma concentration … Mean ± SD (Range)” value ([4]; 0.5 mg/day, gel 20 mg/100 g, n=12, Second cycle, +8 days, LOQ <5 pg/mL) was “<LOQ”, the “Plasma concentration … Mean ± SD (Range)” value ([4]; 0.5 mg/day, gel 20 mg/100 g, n=12, Second cycle, +12 days (maximum)) was no more than 9.09 pg/mL and the “Plasma concentration … Mean ± SD (Range)” value ([4]; 0.5 mg/day, gel 20 mg/100 g, n=12, Second cycle, +20 days) was 0 pg/mL. The “Plasma concentration … Mean ± SD (Range)” value ([4]; 1 mg/day, gel 20 mg/100 g, n=8, First cycle Day 1, 0 hr) was “(0-13.9) pg/mL”, the “Plasma concentration … Mean ± SD (Range)” value ([4]; 1 mg/day, gel 20 mg/100 g, n=8, Second cycle, +20 days, LOQ <5 pg/mL) was “<LOQ” and the “Plasma concentration … Mean ± SD (Range)” value ([4]; 1 mg/day, gel 57 mg/100 g, n=12, First cycle Day 1, 0 hr) was “(0-9.5) pg/mL”. The “Plasma concentration … Mean ± SD (Range)” value ([4]; 1 mg/day, gel 57 mg/100 g, n=12, Second cycle, +8 days) was “(0-14.8) pg/mL”, the “Plasma concentration … Mean ± SD (Range)” value ([4]; 2 mg/day, gel 57 mg/100 g, n=12, First cycle Day 1, 0 hr) was “(0-0) pg/mL” and the “Plasma concentration … Mean ± SD (Range)” value ([4]; 2 mg/day, gel 57 mg/100 g, n=12, Second cycle, +12 days) was “(0-30.4) pg/mL”. For the same molecule, the “Radioactivity in excised tissue and normal breast tissue surrounding the tumor” value [5] was “contained radioactivity” and the Systemic effects [6] was “no detectable laboratory or clinical evidence of systemic effects”.

For CCC(=C(c1ccc(O)cc1)c1ccc(O)cc1)c1ccccc1 [Bisphenol], the “Share of radioactivity in blood” value [1] was 11%.

In the case of CCC(=C(c1ccc(O)cc1)c1ccc(OCCNC)cc1)c1ccccc1 [N-Desmethyl-4-Hydroxy Tamoxifen], the “Share of radioactivity in blood” value [1] is reported as 18%.

In the case of CC/C(=C(\c1ccc(O)cc1)c1ccc(OCCN(C)C)cc1)c1ccccc1 [Z-4-hydroxy tamoxifen], the “Percentage of radioactivity in breast tissue as Z and E isomer” value [2] is reported as 32%.

In the case of CC/C(=C(\c1ccccc1)c1ccc(OCCN(C)C)cc1)c1ccccc1 [tamoxifen, reference compound], the Rat liver carcinogen [3] is given as “is a potent rat liver carcinogen” and the Reported side effects [7] is given as “hot flashes and mild vaginitis”.
